Legend:
HBE cells = conditions: IL-13-treated HBE cells; cited from earlier work
[1] = molecular target: T1, human wild-type (WT)-pendrin (Homo sapiens, UniProt O43511); assay: Pendrin-mediated Cl^−/I^− exchange activity, YFP fluorescence in CHO-K1 cells; format: cell-based; conditions: for inhibition at 30 µM: CHO-K1, 30 μM, read-out: Pendrin inhibitory activity at 30 μM (%); for IC50: compounds showing pendrin inhibitory activity of 50% or more at 30 μM, read-out: IC50
T1 construct: expressed in transfected cells
T1 sequence (O43511 1-780): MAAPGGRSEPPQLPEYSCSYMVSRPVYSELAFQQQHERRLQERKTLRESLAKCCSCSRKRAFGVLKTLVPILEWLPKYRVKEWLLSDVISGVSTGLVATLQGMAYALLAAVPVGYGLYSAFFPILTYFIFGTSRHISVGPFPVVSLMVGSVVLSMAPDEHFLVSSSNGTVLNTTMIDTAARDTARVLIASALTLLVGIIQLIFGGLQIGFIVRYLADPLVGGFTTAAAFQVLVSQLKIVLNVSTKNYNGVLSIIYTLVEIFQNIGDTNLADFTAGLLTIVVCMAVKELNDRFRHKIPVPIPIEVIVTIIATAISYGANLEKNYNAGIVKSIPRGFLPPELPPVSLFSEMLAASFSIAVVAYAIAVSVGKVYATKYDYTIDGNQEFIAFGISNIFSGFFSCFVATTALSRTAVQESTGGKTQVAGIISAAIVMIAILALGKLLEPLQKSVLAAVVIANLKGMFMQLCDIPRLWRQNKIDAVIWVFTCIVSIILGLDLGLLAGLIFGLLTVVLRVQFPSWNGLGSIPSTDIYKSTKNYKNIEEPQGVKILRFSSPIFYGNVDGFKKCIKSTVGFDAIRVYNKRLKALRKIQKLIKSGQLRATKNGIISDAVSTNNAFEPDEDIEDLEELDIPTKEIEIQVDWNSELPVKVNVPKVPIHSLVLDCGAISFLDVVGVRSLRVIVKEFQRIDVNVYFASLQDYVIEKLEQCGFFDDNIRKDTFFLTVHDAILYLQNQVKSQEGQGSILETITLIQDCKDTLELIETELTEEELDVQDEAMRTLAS

Row | Compound | inhibition at 30 µM [1] [%] | also measured
1 | Cn1nc(COc2cccc(F)c2)c2c1CCN(C(=O)Nc1ccc(Cl)cc1)C2 [PDSinh-A01] | – | ASL depth (HBE cells): significantly increased
2 | CC(C)(C)c1ccc(C2=NC(=Cc3ccc(-c4cccc(C(F)(F)F)c4)o3)C(=O)O2)cc1 [F73, 2-(4-(tert-butyl)phenyl)-4-((5-(3-(trifluoromethyl)phenyl)furan-2-yl)methylene)oxazol-5(4H)-one] | 2.9 | –
3 | CC(C)(C#N)c1ccc(C2=NC(=Cc3ccc[nH]3)C(=O)O2)cc1 [F148] | 100 | IC50 [1]: 0.2 ± 0.06 µM
4 | COc1ccc(C2=NC(=Cc3cccs3)C(=O)O2)cc1 [F87, 2-(4-Methoxyphenyl)-4-(thiophen-2-ylmethylene)oxazol-5 (4H)-one] | 3.6 | –
5 | O=C1OC(c2cccc3ccccc23)=NC1=Cc1ccc[nH]1 [F30, 4-((1H-pyrrol-2-yl)methylene)-2-(naphthalen-1-yl)oxazol-5(4H)-one] | 3.9 | –
6 | O=C1OC(c2ccc(OCc3ccccc3)cc2)=NC1=Cc1cccs1 [F109, 2-(4-(Benzyloxy)phenyl)-4-(thiophen-2-ylmethylene)oxazol-5(4H)-one] | 2.4 | –
7 | CCCc1ccc(C2=NC(=Cc3ccc[nH]3)C(=O)O2)cc1 [F143, 4-((1H-pyrrol-2-yl)methylene)-2-(4-propylphenyl)oxazol-5(4H)-one] | 87.4 | IC50 [1]: 5.3 ± 0.69 µM
8 | CC(C)(C)c1ccc(C2=NC(=Cc3cc4ccccc4s3)C(=O)O2)cc1 [F11, 4-(Benzo[b]thiophen-2-ylmethylene)-2-(4-(tert-butyl)phenyl)oxazol-5 (4H)-one] | 3.6 | –
9 | Cc1ncsc1C=C(NC(=O)c1ccc(C(C)(C)C)cc1)C(=O)O [G32, 2-(4-(tert-butyl)benzamido)-3-(4-methylthiazol-5-yl)acrylate] | – | Pendrin inhibitory activity at 30 μM (%) ([1]; 30 μM): 2.1%
10 | COc1cc(C2=NC(=Cc3cccs3)C(=O)O2)cc(OC)c1OC [F94, 4-(Thiophen-2-ylmethylene)-2-(3,4,5-trimethoxyphenyl)oxazol-5(4H)-one] | 1.9 | –
11 | CC(C)(C)c1ccc(C2=NC(=Cc3ccnc4ccccc34)C(=O)O2)cc1 [F13, 2-(4-(tert-butyl)phenyl)-4-(quinolin-4-ylmethylene)oxazol-5 (4H)-one] | 3.8 | –
12 | O=C1OC(c2ccccc2OC(F)F)=NC1=C/C=C/c1ccco1 [F135, 2-(2-(difluoromethoxy)phenyl)-4-((E)-3-(furan-2-yl)allylidene)oxazol-5 (4H)-one] | 2.8 | –
13 | O=C1OC(C2CCCCC2)=NC1=Cc1cccs1 [F23, 2-Cyclohexyl-4-(thiophen-2-ylmethylene)oxazol-5 (4H)-one] | 2.1 | –
14 | CC(C)(C)c1ccc(C(=O)Oc2ccc(C=C3N=C(c4ccccc4Cl)OC3=O)cc2)cc1 [F67, 4-((2-(2-Chlorophenyl)-5-oxooxazol-4(5H)-ylidene)methyl)phenyl4-(tert-butyl)benzoate] | 3.2 | –

More lines, main results first:

Row | inhibition at 30 µM [1] [%] | Compound | also measured
15 | 2.2 | Cc1ncsc1C=C(NC(=O)c1cccc2ccccc12)C(=O)O [G27, 2-(1-Naphthamido)-3-(4-methylthiazol-5-yl)acrylate] | –
16 | 82.1 | CC(C)(C)c1ccc(C(=O)NC(=Cc2ccc[nH]2)C(=O)O)cc1 [G7, 2-(4-(tert-butyl)benzamido)-3-(1H-pyrrol-2-yl)acrylate] | efficacy as pendrin inhibitor compared with F10 [1]: lower efficacy than F10; IC50 [1]: 6.8 ± 0.66 µM
17 | 89.2 | CCCCc1ccc(C(=O)NC(=Cc2ccc[nH]2)C(=O)O)cc1 [G22, 2-(4-Butylbenzamido)-3-(1H-pyrrol-2-yl)acrylate] | IC50 [1]: 5.3 ± 0.58 µM
18 | 2.9 | COC(=O)C(=Cc1ccc[nH]1)NC(=O)c1ccc(C(C)(C)C)cc1 [G1, Methyl 2-(4-(tert-butyl)benzamido)-3-(1H-pyrrol-2-yl)acrylate] | –
19 | 38.2 | CCCc1ccc(C(=O)NC(=Cc2ccco2)C(=O)O)cc1 [G34, 3-(Furan-2-yl)-2-(4-propylbenzamido)acrylate] | –
